Where a name gives a salt, the structure may show the parent alone.
Columns and labels:
[1] = test system: human monocyte stimulated cytokine production (TNF-α); experiment: Monocyte assay (LPS-stimulated TNF-α production); assay type: cell-based; conditions: 24 h, 200 ng/mL LPS, TNF-α by ELISA
Outline: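 TNF-α release was measured by ELISA after 24 hrs at 37 C. Cells were stimulated with 200 ng/mL E. coli LPS, with compound added 30 minutes beforehand (0.1% DMSO vehicle). Cells were Ficoll/MACS-isolated CD14+ human monocytes adhered at 1×10^6 cells/mL, and viability was checked by trypan blue.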

[2] = target: T1, Recombinant human IKKβ (residues 1-737) (Homo sapiens, UniProt O14920); experiment: IKK2 assay (TR-FRET); assay type: biochemical; conditions: ATP 1 μM final, read-out: pIC50 against IKK2 (converted)
T1 construct: Recombinant human IKKβ (residues 1-737); GST (C); made in house
T1 sequence (O14920 1-737): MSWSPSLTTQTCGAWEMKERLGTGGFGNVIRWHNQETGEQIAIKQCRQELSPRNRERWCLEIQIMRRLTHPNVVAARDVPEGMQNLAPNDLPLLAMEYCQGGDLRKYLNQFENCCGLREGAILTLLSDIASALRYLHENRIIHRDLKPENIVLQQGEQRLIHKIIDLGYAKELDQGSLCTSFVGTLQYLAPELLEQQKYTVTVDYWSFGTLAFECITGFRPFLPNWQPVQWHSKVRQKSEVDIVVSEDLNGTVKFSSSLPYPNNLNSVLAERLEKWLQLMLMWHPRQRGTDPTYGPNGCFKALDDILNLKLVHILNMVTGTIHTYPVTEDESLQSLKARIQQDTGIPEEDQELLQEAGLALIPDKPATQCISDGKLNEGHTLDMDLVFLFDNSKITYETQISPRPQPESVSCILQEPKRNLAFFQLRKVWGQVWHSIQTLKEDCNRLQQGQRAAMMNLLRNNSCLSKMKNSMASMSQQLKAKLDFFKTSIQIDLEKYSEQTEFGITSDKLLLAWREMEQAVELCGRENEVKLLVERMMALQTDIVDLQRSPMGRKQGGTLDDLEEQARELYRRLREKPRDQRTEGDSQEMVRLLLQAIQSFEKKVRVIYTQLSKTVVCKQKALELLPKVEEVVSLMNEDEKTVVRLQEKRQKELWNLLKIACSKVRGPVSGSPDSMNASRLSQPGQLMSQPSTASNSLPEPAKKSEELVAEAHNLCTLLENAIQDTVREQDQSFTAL
Outline: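 TR-FRET readout (665 nm over 620 nm Eu reference) of GST-IB Ser32/36 phosphorylation after 60 min detection. Reaction: 1 μM ATP, 25 nM substrate, 0.5-5 nM GST-fused IKKβ 1-737 from baculovirus, pH 7.4 HEPES buffer, 1.7% DMSO, 15 min room temperature, EDTA-terminated.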

Compound | IC50 [1] [µM] | IC50 [2] [µM]
CCS(=O)(=O)N1CCC(c2c[nH]c3c(C(N)=O)cc(-c4ccc(N5CCCC5)nc4)cc23)CC1 [Example 224, 3-[1-(ethylsulfonyl)-4-piperidinyl]-5-[6-(1-pyrrolidinyl)-3-pyridinyl]-1H-indole-7-carboxamide trifluoroacetate] | > 1 | ≤ 10
CCS(=O)(=O)N1CCC(c2c[nH]c3c(C(N)=O)cc(-c4ccc(C5CNCCN5)s4)cc23)CC1 (stereo not drawn) [Example 298, 3-[1-(ethylsulfonyl)-4-piperidinyl]-5-[5-(2-piperazinyl)-2-thienyl]-1H-indole-7-carboxamide trifluoroacetate] | ≤ 1.5 | ≤ 10
CCS(=O)(=O)N1CCC(c2c[nH]c3c(C(N)=O)cc(-c4cc(CNCC(C)C)cs4)cc23)CC1 [Example 210, 3-[1-(ethylsulfonyl)-4-piperidinyl]-5-(4-{[(2-methylpropyl)amino]methyl}-2-thienyl)-1H-indole-7-carboxamide trifluoroacetate] | ≤ 1.5 | ≤ 10
CCS(=O)(=O)N1CCC(c2c[nH]c3c(C(N)=O)cc(-c4ccc(F)c(CNC)c4)cc23)CC1 [Example 269, 3-[1-(ethylsulfonyl)-4-piperidinyl]-5-{4-fluoro-3-[(methylamino)methyl]phenyl}-1H-indole-7-carboxamide trifluoroacetate] | ≤ 1.5 | ≤ 10
CCS(=O)(=O)N1CCC(c2c[nH]c3c(C(N)=O)cc(-c4ccc(N5CCCC5)nn4)cc23)CC1 [Example 302, 3-[1-(ethylsulfonyl)-4-piperidinyl]-5-[6-(1-pyrrolidinyl)-3-pyridazinyl]-1H-indole-7-carboxamide trifluoroacetate] | > 1 | ≤ 10
CCCNc1ccc(-c2cc(C(N)=O)c3[nH]cc(C4CCN(S(=O)(=O)CC)CC4)c3c2)cn1 [Example 227, 3-[1-(ethylsulfonyl)-4-piperidinyl]-5-[6-(propylamino)-3-pyridinyl]-1H-indole-7-carboxamide trifluoroacetate] | ≤ 1.5 | ≤ 10
CCS(=O)(=O)N1CCC(c2c[nH]c3c(C(N)=O)cc(-c4csc([C@H](C)N5CCCC5)c4)cc23)CC1 [Example 212, 3-[1-(ethylsulfonyl)-4-piperidinyl]-5-{5-[(1S)-1-(1-pyrrolidinyl)ethyl]-3-thienyl}-1H-indole-7-carboxamide] | ≤ 1.5 | ≤ 10
CCS(=O)(=O)N1CCC(c2c[nH]c3c(C(N)=O)cc(-c4cccc(CN5CCN(CCOCCO)CC5)c4)cc23)CC1 [Example 6, 3-[1-(ethylsulfonyl)-4-piperidinyl]-5-{3-[(4-{2-[(2-hydroxyethyl)oxy]ethyl}-1-Piperazinyl)methyl]phenyl}-1H-indole-7-carboxamide] | ≤ 1.5 | ≤ 10
CCS(=O)(=O)N1CCC(c2c[nH]c3c(C(N)=O)cc(-c4cccc(C5CSCCN5)c4)cc23)CC1 (stereo not drawn) [Example 297, 3-[1-(ethylsulfonyl)-4-piperidinyl]-5-[3-(3-thiomorpholinyl)phenyl]-1H-indole-7-carboxamide trifluoroacetate] | ≤ 1.5 | ≤ 10
CCNCc1cc(-c2cc(C(N)=O)c3[nH]cc(C4CCN(S(=O)(=O)CC)CC4)c3c2)cs1 [Example 233, 5-{5-[(ethylamino)methyl]-3-thienyl}-3-[1-(ethylsulfonyl)-4-piperidinyl]-1H-indole-7-carboxamide trifluoroacetate] | ≤ 1.5 | ≤ 10
CCS(=O)(=O)N1CCC(c2c[nH]c3c(C(N)=O)cc(-c4cccc(N)n4)cc23)CC1 [Example 163, 5-(6-amino-2-pyridinyl)-3-[1-(ethylsulfonyl)-4-piperidinyl]-1H-indole-7-carboxamide trifluoroacetate] | ≤ 1.5 | ≤ 10
CCS(=O)(=O)N1CCC(c2c[nH]c3c(C(N)=O)cc(-c4ccc(CN(C)C)s4)cc23)CC1 [Example 240, 5-{5-[(dimethylamino)methyl]-2-thienyl}-3-[1-(ethylsulfonyl)-4-piperidinyl]-1H-indole-7-carboxamide trifluoroacetate] | ≤ 1.5 | ≤ 10
CCS(=O)(=O)N1CCC(c2c[nH]c3c(C(N)=O)cc(-c4ccc(CN5CCCC5C)s4)cc23)CC1 (stereo not drawn) [Example 167, 3-[1-(ethylsulfonyl)-4-piperidinyl]-5-{5-[(2-methyl-1-pyrrolidinyl)methyl]-2-thienyl}-1H-indole-7-carboxamide] | ≤ 1.5 | ≤ 10
CCN(C)Cc1nc(-c2cc(C(N)=O)c3[nH]cc(C4CCN(S(=O)(=O)CC)CC4)c3c2)cs1 [Example 356, 5-(2-{[ethyl(methyl)amino]methyl}-1,3-thiazol-4-yl)-3-[1-(ethylsulfonyl)-4-piperidinyl]-1H-indole-7-carboxamide trifluoroacetate] | ≤ 1.5 | ≤ 10
CCCN(C)C(C)c1cc(-c2cc(C(N)=O)c3[nH]cc(C4CCN(S(=O)(=O)CC)CC4)c3c2)cs1 (stereo not drawn) [Example 417, 3-[1-(ethylsulfonyl)-4-piperidinyl]-5-(5-{1-[methyl(propyl)amino]ethyl}-3-thienyl)-1H-indole-7-carboxamide trifluoroacetate] | ≤ 1.5 | ≤ 10
CCS(=O)(=O)N1CCC(c2c[nH]c3c(C(N)=O)cc(-c4csc(CNC)c4)cc23)CC1 [Example 230, 3-[1-(ethylsulfonyl)-4-piperidinyl]-5-{5-[(methylamino)methyl]-3-thienyl}-1H-indole-7-carboxamide trifluoroacetate] | ≤ 1.5 | ≤ 10
CCS(=O)(=O)N1CCC(c2c[nH]c3c(C(N)=O)cc(-c4ccc(CN[C@H](C)CO)cc4)cc23)CC1 [Example 151, 3-[1-(ethylsulfonyl)-4-piperidinyl]-5-[4-({[(1R)-2-hydroxy-1-methylethyl]amino}methyl)phenyl]-1H-indole-7-carboxamide trifluoroacetate] | ≤ 1.5 | ≤ 10
CCCCCCNCc1ccc(-c2cc(C(N)=O)c3[nH]cc(C4CCN(S(=O)(=O)CC)CC4)c3c2)s1 [Example 201, 3-[1-(ethylsulfonyl)-4-piperidinyl]-5-{5-[(hexylamino)methyl]-2-thienyl}-1H-indole-7-carboxamide] | > 1 | ≤ 10
CCS(=O)(=O)N1CCC(c2c[nH]c3c(C(N)=O)cc(-c4csc(CNC[C@@H]5CCCO5)c4)cc23)CC1 [Example 119, 3-[1-(ethylsulfonyl)-4-piperidinyl]-5-[5-({[(2S)-tetrahydro-2-furanylmethyl]amino}methyl)-3-thienyl]-1H-indole-7-carboxamide trifluoroacetate] | ≤ 1.5 | ≤ 10
CCS(=O)(=O)N1CCC(c2c[nH]c3c(C(N)=O)cc(-c4ccc(CN)cc4)cc23)CC1 [Example 30, 5-[4-(aminomethyl)phenyl]-3-[1-(ethylsulfonyl)-4-piperidinyl]-1H-indole-7-carboxamide] | ≤ 1.5 | ≤ 10
CCS(=O)(=O)N1CCC(c2c[nH]c3c(C(N)=O)cc(-c4cccc(CN[C@H](C)C(C)(C)C)c4)cc23)CC1 [Example 311, 3-[1-(ethylsulfonyl)-4-piperidinyl]-5-[3-({[(1R)-1,2,2-trimethylpropyl]amino}methyl)phenyl]-1H-indole-7-carboxamide] | ≤ 1.5 | ≤ 10
CCS(=O)(=O)N1CCC(c2c[nH]c3c(C(N)=O)cc(-c4cccc(CN5CCNCC5)c4)cc23)CC1 [Example 2, 3-[1-(ethylsulfonyl)-4-piperidinyl]-5-[3-(1-piperazinylmethyl)phenyl]-1H-indole-7-carboxamide] | ≤ 1.5 | ≤ 10
CCS(=O)(=O)N1CCC(c2c[nH]c3c(C(N)=O)cc(-c4csc(CN5CCCCC5)c4)cc23)CC1 [Example 235, 3-[1-(ethylsulfonyl)-4-piperidinyl]-5-[5-(1-piperidinylmethyl)-3-thienyl]-1H-indole-7-carboxamide trifluoroacetate] | ≤ 1.5 | ≤ 10
CCS(=O)(=O)N1CCC(c2c[nH]c3c(C(N)=O)cc(-c4csc(CN5[C@H](C)CC[C@H]5C)c4)cc23)CC1 [Example 108, 5-(5-{[(2R,5R)-2,5-dimethyl-1-pyrrolidinyl]methyl}-3-thienyl)-3-[1-(ethylsulfonyl)-4-piperidinyl]-1H-indole-7-carboxamide trifluoroacetate] | ≤ 1.5 | ≤ 10
